Test results reported in patent US9763942B2, “Serine/threonine kinase inhibitors” (Array BioPharma Inc., priority 2013, dated 2017).
Like-named read-outs stand apart in the source and are kept apart here.

Assays:
[1] = biological target: T1, human ERK-2 (Mitogen Activated Kinase 1) (Homo sapiens, UniProt P28482); assay: ERK-2 Enzymatic Assay; format: biochemical
T1 construct: n-terminal 6-His fusion protein in E. coli and corresponding to aa 8-360; 6-His (N); made in house; host or cells: E. coli
Excerpt: Table 1 contains representative data for Examples disclosed herein.

[2] = test system: PMA-stimulated P90RSK(Ser380) phosphorylation in HepG2 cells; assay: Cellular P90RSK(Ser380) Phosphorylation Assay; format: cell-based; conditions: Homo sapiens, 1.5 hours compound incubation, PMA 100 ng/mL 30 minutes, pP90RSK(Ser380) signal normalized to GAPDH, single assay or mean of multiple assays, read-out: Biological Example 2 IC50
Protocol: Inhibition of PMA-stimulated P90RSK(Ser380) phosphorylation was determined by the following in vitro cellular mechanistic assay, which comprises incubating cells with a compound for 1.5 hours and quantifying fluorescent pP90RSK(Ser380) signal on fixed cells and normalizing to GAPDH signal.
HepG2 cells were obtained from ATCC and grown in DMEM supplemented with 10% fetal bovine serum. Cells were plated in 96-well plates at 35,000 cells/well and allowed to attach overnight at 37° C./5% CO2. Diluted compounds were then added at a final concentration of 0.5% DMSO. After 1.5 hours compound incubation, cells were stimulated with the addition of phorbol 12-myristate 13-acetate (“PMA”) at a final concentration of 100 ng/mL; the PMA stimulation was a 30-minute incubation at 37° C./5% CO2. After the 30-minute PMA stimulation, cells were washed with phosphate buffered saline (“PBS”) and fixed in 3.7% formaldehyde in PBS at room temperature for 15-20 minutes. This was followed by another wash in PBS and then permeabilization in 100% MeOH at room temperature for 10-15 minutes. Following the permeabilization incubation, cells were washed in PBS/0.05% Tween-20, followed by a block in Odyssey blocking buffer (LI-COR Biosciences) for at least 1 hour. Antibodies to phosphorylated P90RSK(Ser380) (Cell Signaling #9335, rabbit monoclonal) and GAPDH (Fitzgerald 10R-G109a, mouse monoclonal) were added to the cells and incubated overnight at 4° C. pP90RSK(Ser380) antibody was used at a 1:250 dilution; GAPDH was used at a 1:10,000 dilution. After washing with PBS/0.05% Tween-20, the cells were incubated with fluorescently-labeled secondary antibodies (Anti-rabbit-Alexa Flour680, Invitrogen Cat#A21109; Anti-mouse-IRDye800CW, Rockland Inc. Cat#610-131-121) for 1 hour. Both secondary antibodies were used at a 1:1000 dilution. Cells were then washed and analyzed for fluorescence at both wavelengths using the Odyssey Infrared Imaging System (LI-COR Biosciences). Phosphorylated P90RSK(Ser380) signal was normalized to GAPDH signal.

[3] = 5 nM ERK-2 enzyme, 25 μM ATP (observed Km), Omnia peptide S/T17, single assay or mean of multiple assays, read-out: Biological Example 1 IC50
[4] = ERK-2 enzymatic assay, read-out: IC50

T1 sequence (P28482 8-360): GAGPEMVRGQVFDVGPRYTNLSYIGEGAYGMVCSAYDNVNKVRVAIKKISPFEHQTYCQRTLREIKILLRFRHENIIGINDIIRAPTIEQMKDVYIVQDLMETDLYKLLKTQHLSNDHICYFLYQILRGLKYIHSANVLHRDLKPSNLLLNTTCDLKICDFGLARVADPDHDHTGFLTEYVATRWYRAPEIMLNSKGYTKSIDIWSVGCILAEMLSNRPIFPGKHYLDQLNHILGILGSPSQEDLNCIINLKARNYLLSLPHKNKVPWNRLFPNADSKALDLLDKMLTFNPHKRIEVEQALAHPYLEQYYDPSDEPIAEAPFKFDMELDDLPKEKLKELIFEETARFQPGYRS

| Compound | IC50 [1, 3] | IC50 [1, 4] | IC50 [2] |
| --- | --- | --- | --- |
| Cc1cccc(Cn2nnc3cc(-c4ccnc(Nc5ccnn5C)n4)ccc32)n1 [Example 58, N-(1-methyl-1H-pyrazol-5-yl)-4-(1-((6-methylpyridin-2-yl)methyl)-1H-benzo[d][1,2,3]triazol-5-yl)pyrimidin-2-amine] | 11.4 nM | < 100 nM | 437 nM |
| Cn1nccc1Nc1nccc(-c2ccc3c(c2)nnn3Cc2cccc(F)c2F)n1 [Example 1, 4-(1-(2,3-difluorobenzyl)-1H-benzo[1,2,3]triazol-5-yl)-N-(1-methyl-1H-pyrazol-5-yl)pyrimidin-2-amine] | 0.9 nM | < 100 nM | 22.7 nM |
| COc1ccc(Cn2nnc3cc(-c4ccnc(Nc5ccnn5C)n4)cnc32)cc1F [Example 5, 4-(3-(3-fluoro-4-methoxybenzyl)-3H-[1,2,3]triazolo[4,5-b]pyridin-6-yl)-N-(1-methyl-1H-pyrazol-5-yl)pyrimidin-2-amine] | 2.5 nM | < 100 nM | 16.8 nM |
| COc1ccc(Cn2nnc3cc(-c4ccnc(N[C@@H]5CCOC[C@H]5F)n4)ccc32)cc1F [Example 6, 4-(1-(3-fluoro-4-methoxybenzyl)-1H-benzoyl[d][1,2,3]triazol-5-yl)-N-((3S,4R)-3-fluorotetrahydro-2H-pyran-4-yl)pyrimidin-2-amine] | 2.6 nM | < 100 nM | 58.2 nM |
| CCOCCCn1nnc2cc(-c3ccnc(Nc4ccnn4C)n3)ccc21 [Example 43, 4-(1-(3-ethoxypropyl)-1H-benzo[d][1,2,3]triazol-5-yl)-N-(1-methyl-1H-pyrazol-5-yl)pyrimidin-2-amine] | 5.7 nM | < 100 nM | 68.5 nM |
| Cn1nccc1Nc1nccc(-c2ccc3c(c2)nnn3CC2CNC2)n1 [Example 62, 4-(1-(azetidin-3-ylmethyl)-1H-benzo[d][1,2,3]triazol-5-yl)-N-(1-methyl-1H-pyrazol-5-yl)pyrimidin-2-amine] | 53.2 nM | < 100 nM | 1400 nM |
| Cn1nccc1Nc1nccc(-c2ccc3c(c2)nnn3CCn2cc(Cl)cn2)n1 [Example 4, 4-(1-(2-(4-chloro-1H-pyrazol-1-yl)ethyl)-1H-benzo[d][1,2,3]triazol-5-yl)-N-(1-methyl-1H-pyrazol-5-yl)pyrimidin-2-amine] | 1.9 nM | < 100 nM | 3.2 nM |
| COc1cccc(F)c1CN1CC(n2nnc3cc(-c4ccnc(Nc5ccnn5C)n4)ccc32)C1 [Example 88, 4-(1-(1-(2-fluoro-6-methoxybenzyl)azetidin-3-yl)-1H-benzo[d][1,2,3]triazol-5-yl)-N-(1-methyl-1H-pyrazol-5-yl)pyrimidin-2-amine] | – | < 100 nM | – |
| COc1ccc(Cn2nnc3cc(-c4ccnc(NC5(C)COC5)n4)ccc32)cc1F [Example 21, 4-(1-(3-fluoro-4-methoxybenzyl)-1H-benzo[d][1,2,3]triazol-5-yl)-N-(3-methyloxetan-3-yl)pyrimidin-2-amine] | – | < 100 nM | – |
| Cn1ccc(Cn2nnc3cc(-c4ccnc(Nc5ccnn5C)n4)ccc32)n1 [Example 32, 4-(1-((1-methyl-1H-pyrazol-3-yl)methyl)-1H-benzo[d][1,2,3]triazol-5-yl)-N-(1-methyl-1H-pyrazol-5-yl)pyrimidin-2-amine] | – | < 100 nM | – |
| Cn1nccc1Nc1nccc(-c2cnc3c(c2)nnn3Cc2ccc(Cl)c(F)c2)n1 [Example 119, 4-(3-(4-chloro-3-fluorobenzyl)-3H-(1,2,3]triazolo[4,5-b]pyridin-6-yl)-N-(1-methyl-1H-pyrazol-5-yl)pyrimidin-2-amine] | – | < 100 nM | – |
| COCC(C)(C)Cn1nnc2cc(-c3ccnc(Nc4ccnn4C)n3)ccc21 [Example 46, 4-(1-(3-methoxy-2,2-dimethylpropyl)-1H-benzo[d][1,2,3]triazol-5-yl)-N-(1-methyl-1H-pyrazol-5-yl)pyrimidin-2-amine] | – | < 100 nM | – |
| CCOCC1(Cn2nnc3cc(-c4ccnc(Nc5ccnn5C)n4)ccc32)CC1 [Example 45, 4-(1-((1-(ethoxymethyl)cyclopropyl)methyl)-1H-benzo[d][1,2,3]triazol-5-yl)-N-(1-methyl-1H-pyrazol-5-yl)pyrimidin-2-amine] | – | < 100 nM | – |
| COc1ncccc1Cn1nnc2cc(-c3ccnc(Nc4ccnn4C)n3)cnc21 [Example 126, 4-(3-((2-methoxypyridin-3-yl)methyl)-3H-[1,2,3]triazolo[4,5-b]pyridin-6-yl)-N-(1-methyl-1H-pyrazol-5-yl)pyrimidin-2-amine] | – | < 100 nM | – |
| Cn1nccc1Nc1nccc(-c2ccc3c(c2)nnn3CCc2ccccc2Cl)n1 [Example 49, 4-(1-(2-chlorophenethyl)-1H-benzo-[d][1,2,3]triazol-5-yl)-N-(1-methyl-1H-pyrazol-5-yl)pyrimidin-2-amine] | – | < 100 nM | – |
| COc1ccc([C@@H](c2cnnn2C)n2nnc3cc(-c4ccnc(Nc5ccnn5C)n4)ccc32)cc1F [Example 71, (S)-4-(l-((3-fluoro-4-methoxyphenyl)(1-methyl-1H-1,2,3-triazol-5-yl)methyl)-1H-benzo[d][1,2,3]triazol-5-yl)-N-(1-methyl-1H-pyrazol-5-yl)pyrimidin-2-amine] | – | < 100 nM | – |
| Cn1nccc1Nc1nccc(-c2ccc3c(c2)nnn3CC2CCCCO2)n1 (centres unmarked) [Example 101, N-(1-methyl-1H-pyrazol-5-yl)-4-(1-((tetrahydro-2H-pyran-2-yl)methyl)-1H-benzoyl[d][1,2,3]triazol-5-yl)pyrimidin-2-amine] | – | < 100 nM | – |
| COc1ccc(Cn2nnc3cc(-c4ccnc(NC5CC5)n4)ccc32)cc1F [Example 15, N-cyclopropyl-4-(1-(3-fluoro-4-methoxybenzyl)-1H-benzo[d][1,2,3]triazol-5-yl)pyrimidin-2-amine] | – | < 100 nM | – |
| Cn1nccc1Nc1nccc(-c2ccc3c(c2)nnn3CCc2ccc(Cl)cc2)n1 [Example 3, 4-(1-(4-chlorophenethyl)-1H-benzo[d][1,2,3]triazol-5-yl)-N-(1-methyl-1H-pyrazol-5-yl)pyrimidin-2-amine] | – | < 100 nM | – |
| Cn1nccc1Nc1nccc(-c2ccc3c(c2)nnn3Cc2ccccc2C(F)(F)F)n1 [Example 122] | – | < 100 nM | – |
| Cn1nccc1Nc1nccc(-c2ccc3c(c2)nnn3[C@@H]2CNC[C@H]2c2ccc(F)c(F)c2)n1 [Example 78, 4-(1-((3S,4R)-4-(3,4-difluorophenyl)pyrrolidin-3-yl)-1H-benzo[d][1,2,3]triazol-5-yl)-N-(1-methyl-1H-pyrazol-5-yl)pyrimidin-2-amine] | – | < 100 nM | – |
| COc1ccc(Cn2nnc3cc(-c4ccnc(NCC5COC5)n4)ccc32)cc1F [Example 17, 4-(1-(3-fluoro-4-methoxybenzyl)-1H-benzo[d][1,2,3]triazol-5-yl)-N-(oxetan-3-ylrnethyl)pyrimidin-2-amine] | – | < 100 nM | – |
| Cn1nccc1Nc1nccc(-c2ccc3c(c2)nnn3Cc2cccnc2Cl)n1 [Example 66, 4-(1-((2-chloropyridin-3-yl)methyl)-1H-benzo[d][1,2,3]triazol-5-yl)-N-(1-methyl-1H-pyrazol-5-yl)pyrimidin-2-amine] | – | < 100 nM | – |
| Fc1cc(Cn2nnc3cc(-c4ccnc(NC5CCOCC5)n4)ccc32)ccc1Cl [Example 109, 4-(1-(4-chloro-3-fluorobenzyl)-1H-benzo[d][1,2,3]triazol-5-yl)-N-(tetrahydro-2H-pyran-4-yl)pyrimidin-2-amine] | – | < 100 nM | – |
| COC(C)Cn1nnc2cc(-c3ccnc(Nc4ccnn4C)n3)ccc21 (centres unmarked) [Example 30, 4-(1-(2-methoxypropyl)-1H-benzo[d][1,2,3]triazol-5-yl)-N-(1-methyl-1H-pyrazol-5-yl)pyrimidin-2-amine] | – | < 100 nM | – |
| Cn1nccc1Nc1nccc(-c2ccc3c(c2)nnn3Cc2ccc(Cl)c(F)c2)n1 [Example 108, 4-(1-(4-chloro-3-fluorobenzyl)-1H-benzo[d][1,2,3]triazol-5-yl)-N-(1-methyl-1H-pyrazol-5-yl)pyrimidin-2-amine] | – | < 100 nM | – |
| Fc1cccc(Cn2nnc3cc(-c4ccnc(NC5CCOCC5)n4)ccc32)c1 [Example 107, 4-(1-(3-fluorobenzyl)-1H-benzo[d][1,2,3]triazol-5-yl)-N-(tetrahydro-2H-pyran-4-yl)pyrimidin-2-amine] | – | < 100 nM | – |
